# PMC12458545, “Repurposing a Detrimental Antibody Epitope as Targeted Therapeutics for Sepsis and Rheumatoid Arthritis” (Research Square, 2025)
# “Also recorded” adds a separate entry of the source.
# Assays:
# [1] = tested on: CLP-induced sepsis; assay: CLP sepsis survival; type: in vivo, Balb/C mice
# Protocol: Experimental sepsis was induced in Balb/C mice via cecal ligation and puncture (CLP) as previously described,[30],[37]. […] Briefly, mice were anesthetized intramuscularly with ketamine (75 mg/kg, Henry Schein Animal Health, Dublin, Ohio) and xylazine (10 mg/kg, Sigma-Aldrich) before a midline abdominal incision was made in the lower left abdomen. The cecum was ligated with a 4–0 silk suture at 50% of its length from the distal end, and punctured twice with a 21-gauge needle to induce moderate to severe sepsis. The cecum was returned to the abdominal cavity, and the incision was closed in layers. Approximately 30 min post-CLP, animals received imipenem/cilastatin (0.5 mg/mouse, Primaxin, Merck & Co., Inc.) and 1.0 mL of sterile saline for fluid resuscitation. Animals were randomized to control vehicle and experimental groups, administered P2 or P2–1 intraperitoneally at indicated doses and time points, and monitored for survival rates. To elucidate P2–1’s protective mechanisms, a separate group of Balb/C mice underwent CLP and received P2–1 (1.0 mg/kg) at 2 h and 20 h post-CLP. At 24 h post-CLP, animals were euthanized to collect blood and measure serum cytokines and chemokines using murine Cytokine Antibody Arrays.
# All data were first assessed for normality using the Shapiro-Wilk test before applying the appropriate statistical analyses. All data are presented as mean ± standard error of the mean (SEM) unless otherwise specified. For comparison among multiple groups with non-normal (skewed) distribution, the Kruskal-Wallis ANOVA test followed by Dunn’s post-hoc test was used to evaluate statistical differences. Survival curves were analyzed using Kaplan-Meier method and compared using the nonparametric log-rank (Mantel-Cox) test. Statistical significance was defined as a P value less than 0.05.
# [2] = tested on: collagen antibody-induced arthritis (CAIA); assay: CAIA arthritis severity clinical score; type: in vivo, Balb/C mice; details: P2–1 i.p. daily Day 6 to Day 9; male and female mice; vs. saline vehicle
# Protocol: The CAIA model was performed in Balb/C mice (8–10 weeks old) as described previously. On Day 0, mice received i.p. injection of 2 mg anti-collagen II mAb cocktail (α-II, Chondrex, Inc., Redmond, WA). On Day 3, mice received i.p. injection of 30 μg LPS (Escherichia coli O111:B4; Sigma-Aldrich) to activate inflammation and synchronize arthritis onset. Mice were randomized, and therapeutic agents (P2–1 peptide or pCTS-L-neutralizing mAb2) were administered i.p. daily from Day 6 to Day 9. Arthritis severity was scored daily using a clinical scoring system [0 – 4 per paw: 0 = normal; 1 = mild redness and swelling in a single joint type (ankle, wrist, or individual digits); 2 = moderate redness and swelling affecting two joint types; 3 = severe redness and swelling involving across all three joint types; 4 = maximal redness and swelling of the entire paw that obscured joint definition].
# [3] = tested on: human PBMCs; assay: RNA-seq of HMGB1-stimulated PBMCs; type: cell-based; details: for other HMGB1-induced gene expression (cytokines, chemokines) (words): P2–1 5.0 or 10.0 μg/ml with HMGB1
# Protocol: (§1) Human blood was purchased from the New York Blood Center (Long Island City, NY, USA), and PBMCs were isolated by density gradient centrifugation through Ficoll (Ficoll-Paque PLUS) as previously described,[30]. PBMCs were cultured in RPMI-1640 supplemented with 10% human serum, 2 mM L-glutamine, 100 U/mL penicillin, and 100 μg/mL streptomycin (all from Invitrogen). For experiments, PBMCs were stimulated with recombinant human HMGB1 (0.5 or 2.0 μg/ml) for 16 hours, either alone or in combination with P2–1 at 5.0 or 10.0 μg/ml. Cell-free supernatants were collected for analysis of cytokines/chemokines levels by Cytokine Antibody Arrays, or pCTS-L levels by Western blotting analysis as described.
# Total RNA was isolated from human PBMCs stimulated with HMGB1 in the absence or presence of P2–1 (5.0 or 10.0 μg/ml) using the RNeasy Mini Kit (Qiagen) according to the manufacturer’s instructions. RNA quantity and quality were assessed using a NanoDrop spectrophotometer and an Agilent Bioanalyzer. cDNA libraries were prepared using the TruSeq RNA Library Prep Kit v2 (Illumina) and sequenced on an Illumina NovaSeq 6000 platform to generate 100 bp paired-end reads. Raw sequencing reads were quality-checked using FastQC, trimmed with Trimmomatic, and aligned to the human reference genome (GRCh38) using HISAT2. Gene counts were quantified using StringTie and DESeq2 was used for differential gene expression analysis. Volcano plots and heatmaps were generated using ggplot2 and pheatmap packages in R, respectively. Genes with an adjusted P-value < 0.05 and a |log2-fold change| > 1 were considered differentially expressed.
# [4] = tested on: human PBMCs; assay: HMGB1-induced pCTS-L secretion, Western blot; type: cell-based; details: P2–1 5 or 10 μg/ml, HMGB1 0.5 or 2.0 μg/ml, 16 h, n = 4 independent experiments
# Protocol: as §1
# Cell-conditioned medium from human PBMC cultures was collected, and concentrated using Amicon Ultra Centrifugal Filters. Equal volumes of conditioned medium, representing equivalent numbers of cells, were resolved on sodium dodecyl sulfate (SDS)-polyacrylamide gels and transferred to polyvinylidene difluoride (PVDF) membranes. After blocking with 5% nonfat milk in Tris-buffered saline with 0.1% Tween 20 (TBST), membranes were probed with a home-made primary monoclonal antibody against pCTS-L (e.g., mAb2, 1:1000) overnight as previously described. After washing, membranes were incubated with a horseradish peroxidase-conjugated secondary antibody. Protein bands were visualized using enhanced chemiluminescence (ECL) substrate (Pierce) and detected with a chemiluminescence imaging system (e.g., Bio-Rad ChemiDoc MP). The relative levels of specific proteins were determined using the UN-SCAN-IT Gel Analysis Software Version 7.1 (Silk Scientific Inc., Orem, UT, USA) and expressed in arbitrary units (AU).
substance,measurement,setting,value
"54-TKVH(Nle)KSFLAFQTKT-69 [P2–1, water-soluble derivative of TN peptide P2 with Met to Norleucine and Cys to Ser substitutions]",animal survival (# of Survivors),"[1]; Fig. 2C, P2–1 0.1 mg/kg, delayed administration (24 h and 48 h post-CLP), no asterisk",60%
same,survival,"[1]; P2–1 0.1 mg/kg at 2 h, 20 h, 28 h, 44 h, and 52 h post-CLP, 0.1 mg/kg",conferred significant protection against lethal sepsis
same,animal survival (# of Survivors),"[1]; P2–1 0.1 mg/kg i.p. at 2 h, 20 h, 28 h, 44 h, and 52 h post-CLP, P < 0.05 vs. control",70%
same,survival,"[1]; P2–1 1.0 mg/kg, delayed, 24 h and 48 h post-CLP, 1 mg/kg",provided potent protection against lethal sepsis; also recorded: rescued mice from lethal sepsis
same,animal survival (# of Survivors),"[1]; delayed, P2–1 1.0 mg/kg i.p. at 24 h and 48 h post-CLP, P < 0.05 vs. vehicle",90%
same,arthritis severity,[2],dose-dependently and significantly attenuated
same,Ctsl mRNA upregulation (fold),"[3]; HMGB1 + P2–1 group, three independent donors, mean ± SEM",2.4 ± 0.1 fold
same,HMGB1-induced Ctsl mRNA upregulation,[3]; P2–1 5.0 or 10.0 μg/ml,moderately but significantly reduced HMGB1-induced Ctsl mRNA upregulation
same,"other HMGB1-induced gene expression (cytokines, chemokines) (words)",[3],did not broadly reverse HMGB1-induced transcriptional changes for most genes; also recorded: not significantly affecting the expression of other HMGB1-induced cytokines and chemokines
same,"other HMGB1-induced gene expression (cytokines, chemokines) (words)",[3]; listed as P2-1,does not induce
same,HMGB1-induced pCTS-L secretion,[4],dose-dependently abrogated HMGB1-induced pCTS-L secretion; also recorded: striking and dose-dependent suppression
same,HMGB1-induced pCTS-L secretion,[4]; listed as P2-1,inhibitory effect
